Patent publication US20240343704A1, “HALO-SUBSTITUTED AMINO PYRIDINE COMPOUNDS AS INHIBITORS OF THE HAEMATOPOIETIC PROGENITOR KINASE 1 (HPK1)” (priority 2021, published 2024)

Key:
[1] = target: T1, Recombinant (1-346) HPK1 (h) (Homo sapiens, UniProt Q92918); experiment: HPK1 Human STE Kinase Enzymatic Radiometric Assay; type: biochemical; settings: read-out: HPK1 IC50 nM Range*
T1 construct: Recombinant (1-346) HPK1 (h) is incubated with 8 mM MOPS pH 7.0
T1 sequence (Q92918 1-346): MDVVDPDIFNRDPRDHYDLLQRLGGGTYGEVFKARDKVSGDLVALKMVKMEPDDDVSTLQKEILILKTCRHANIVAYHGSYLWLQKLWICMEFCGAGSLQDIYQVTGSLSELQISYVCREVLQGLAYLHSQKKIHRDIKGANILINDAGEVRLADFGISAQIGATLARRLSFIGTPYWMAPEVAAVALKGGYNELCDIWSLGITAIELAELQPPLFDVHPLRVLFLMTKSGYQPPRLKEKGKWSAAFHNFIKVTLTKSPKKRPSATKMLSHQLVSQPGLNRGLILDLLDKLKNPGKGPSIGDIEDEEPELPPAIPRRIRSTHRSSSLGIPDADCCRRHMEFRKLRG
Experimental: A stock solution of 10 mM of test compound is prepared in DMSO. The compound plate was prepared by 3-fold and 9-point serial dilutions. […] The reaction is initiated by The addition of the Mg/ATP mix. After incubation for 40 minutes at RT, the reaction is stopped by the addition of phosphoric acid to a concentration of 0.5%.

Lck (h) = Lck (h) (Homo sapiens, UniProt P06239); experiment: Lck Human  Kinase Enzymatic Radiometric Assay; type: biochemical; settings: read-out: Lck IC50 nM Range*
Chain of Lck (h) (P06239 whole entry): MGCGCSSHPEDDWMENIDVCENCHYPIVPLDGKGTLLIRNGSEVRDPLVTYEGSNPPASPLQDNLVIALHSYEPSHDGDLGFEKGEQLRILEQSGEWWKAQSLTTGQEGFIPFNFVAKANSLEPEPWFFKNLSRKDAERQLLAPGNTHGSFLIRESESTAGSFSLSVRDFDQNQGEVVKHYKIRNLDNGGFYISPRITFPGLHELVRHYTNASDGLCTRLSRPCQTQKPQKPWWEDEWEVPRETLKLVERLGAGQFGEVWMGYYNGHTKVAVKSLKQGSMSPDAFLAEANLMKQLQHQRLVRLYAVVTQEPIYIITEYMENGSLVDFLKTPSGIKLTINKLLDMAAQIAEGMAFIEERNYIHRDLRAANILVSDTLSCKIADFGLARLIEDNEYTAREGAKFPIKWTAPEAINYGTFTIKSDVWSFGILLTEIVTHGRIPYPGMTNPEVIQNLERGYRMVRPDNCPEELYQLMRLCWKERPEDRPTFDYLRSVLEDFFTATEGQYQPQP
Method in brief: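 Substrate 33P-incorporation measured by scintillation counting after spotting on P30 filtermat and phosphoric acid washes. Human Lck reacted 40 min at RT in 50 mM Tris pH 7.5 with 10 mM MgAcetate, [gamma-33P]-ATP, 250 uM Cdc2 peptide, 0.1 mM EGTA and 0.1 mM Na3VO4.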

Row | IC50 [1] [nM] | IC50 (Lck (h)) [nM] | SMILES
1 | 11 to 100 | > 1000 | Nc1nc(F)c(-c2ccc(OC3CNC3)cc2)cc1-c1ccc2c(c1)CCNC2=O [I-146, 6-(2-amino-5-(4-(azetidin-3-yloxy)phenyl)-6-fluoropyridin-3-yl)-3,4-dihydroisoquinolin-1(2H)-one]
2 | 0.1 to 10 | > 1000 | CC1(C)CC(Oc2ccc(-c3cc(-c4ccc5c(c4)CCNC5=O)c(N)nc3F)cc2)CCN1 (stereo not drawn) [I-147, 6-(2-amino-5-(4-((2,2-dimethylpiperidin-4-yl)oxy)phenyl)-6-fluoropyridin-3-yl)-3,4-dihydroisoquinolin-1(2H)-one]
3 | 11 to 100 | > 1000 | Nc1nc(F)c(-c2ccc(OC3CCNCC3)c(F)c2F)cc1-c1ccc2c(c1)CCNC2=O [I-148, 6-(2-amino-5-(2,3-difluoro-4-(piperidin-4-yloxy)phenyl)-6-fluoropyridin-3-yl)-3,4-dihydroisoquinolin-1(2H)-one]
4 | 11 to 100 | > 1000 | Nc1nc(F)c(-c2cc(F)c(OC3CCNCC3)cc2F)cc1-c1ccc2c(c1)CCNC2=O [I-149, 6-(2-amino-5-(2,5-difluoro-4-(piperidin-4-yloxy)phenyl)-6-fluoropyridin-3-yl)-3,4-dihydroisoquinolin-1(2H)-one]
5 | 11 to 100 | > 1000 | COc1cc(OC2CCNCC2)ccc1-c1cc(-c2ccc3c(c2)CCNC3=O)c(N)nc1F [I-150, 6-(2-amino-6-fluoro-5-(2-methoxy-4-(piperidin-4-yloxy)phenyl)pyridin-3-yl)-3,4-dihydroisoquinolin-1(2H)-one]
6 | 11 to 100 | > 1000 | COc1cc(-c2cc(-c3ccc4c(c3)CCNC4=O)c(N)nc2F)ccc1OC1CCNCC1 [I-151, 6-(2-amino-6-fluoro-5-(3-methoxy-4-(piperidin-4-yloxy)phenyl)pyridin-3-yl)-3,4-dihydroisoquinolin-1(2H)-one]
7 | 0.1 to 10 | > 1000 | Nc1nc(F)c(-c2ccc(C3CCN(C4COC4)CC3)cc2)cc1-c1ccc2c(c1)CCNC2=O [I-152, 6-(2-amino-6-fluoro-5-(4-(1-(oxetan-3-yl)piperidin-4-yl)phenyl)pyridin-3-yl)-3,4-dihydroisoquinolin-1(2H)-one]
8 | 11 to 100 | > 1000 | Nc1nc(F)c(-c2ccc(C3CCCCN3C3COC3)cc2)cc1-c1ccc2c(c1)CCNC2=O (stereo not drawn) [I-153, 6-(2-amino-6-fluoro-5-(4-(1-(oxetan-3-yl)piperidin-2-yl)phenyl)pyridin-3-yl)-3,4-dihydroisoquinolin-1(2H)-one]
9 | 11 to 100 | > 1000 | Nc1nc(F)c(-c2ccc(C3COCCN3C3COC3)cc2)cc1-c1ccc2c(c1)CCNC2=O (stereo not drawn) [I-154, 6-(2-amino-6-fluoro-5-(4-(4-(oxetan-3-yl)morpholin-3-yl)phenyl)pyridin-3-yl)-3,4-dihydroisoquinolin-1(2H)-one]
10 | 0.1 to 10 | > 1000 | Nc1nc(F)c(-c2ccc(C3=CCN(C4COC4)CC3)cc2)cc1-c1ccc2c(c1)CCNC2=O [I-155, 6-(2-amino-6-fluoro-5-(4-(1-(oxetan-3-yl)-1,2,3,6-tetrahydropyridin-4-yl)phenyl)pyridin-3-yl)-3,4-dihydroisoquinolin-1(2H)-one]
11 | 0.1 to 10 | > 1000 | Nc1nc(F)c(-c2ccc([C@@]34C[C@@H]3CN(C3COC3)C4)cc2)cc1-c1ccc2c(c1)CCNC2=O [I-156, 6-(2-amino-6-fluoro-5-(4-((1R,5S)-3-(oxetan-3-yl)-3-azabicyclo[3.1.0]hexan-1-yl)phenyl)pyridin-3-yl)-3,4-dihydroisoquinolin-1(2H)-one]
12 | 0.1 to 10 | > 1000 | CN(C)C1CCN(c2ccc(-c3cc(-c4ccc5c(c4)CCNC5=O)c(N)nc3F)cc2)C1 (stereo not drawn) [I-157, 6-(2-amino-5-(4-(3-(dimethylamino)pyrrolidin-1-yl)phenyl)-6-fluoropyridin-3-yl)-3,4-dihydroisoquinolin-1(2H)-one]
13 | 0.1 to 10 | 101 to 1000 | CCN(C)C1CCN(c2ccc(-c3cc(-c4ccc5c(c4)CCNC5=O)c(N)nc3F)cc2)C1 (stereo not drawn) [I-158, 6-(2-amino-5-(4-(3-(ethyl(methyl)amino)pyrrolidin-1-yl)phenyl)-6-fluoropyridin-3-yl)-3,4-dihydroisoquinolin-1(2H)-one]
14 | 0.1 to 10 | > 1000 | CN(CC(F)(F)F)C1CCN(c2ccc(-c3cc(-c4ccc5c(c4)CCNC5=O)c(N)nc3F)cc2)C1 (stereo not drawn) [I-159, 6-(2-amino-6-fluoro-5-(4-(3-(methyl(2,2,2-trifluoroethyl)amino)pyrrolidin-1-yl)phenyl)pyridin-3-yl)-3,4-dihydroisoquinolin-1(2H)-one]
15 | 0.1 to 10 | > 1000 | COCCN(C)[C@@H]1CCN(c2ccc(-c3cc(-c4ccc5c(c4)CCNC5=O)c(N)nc3F)cc2)C1 [I-160, (R)-6-(2-amino-6-fluoro-5-(4-(3-((2-methoxyethyl)(methyl)amino)pyrrolidin-1-yl)phenyl)pyridin-3-yl)-3,4-dihydroisoquinolin-1(2H)-one]
16 | 0.1 to 10 | 101 to 1000 | CN(CC1CC1)[C@@H]1CCN(c2ccc(-c3cc(-c4ccc5c(c4)CCNC5=O)c(N)nc3F)cc2)C1 [I-161, (R)-6-(2-amino-5-(4-(3-((cyclopropylmethyl)(methyl)amino)pyrrolidin-1-yl)phenyl)-6-fluoropyridin-3-yl)-3,4-dihydroisoquinolin-1(2H)-one]
17 | 0.1 to 10 | > 1000 | CC(C)CN(C)C1CCN(c2ccc(-c3cc(-c4ccc5c(c4)CCNC5=O)c(N)nc3F)cc2)C1 (stereo not drawn) [I-162, 6-(2-amino-6-fluoro-5-(4-(3-(isobutyl(methyl)amino)pyrrolidin-1-yl)phenyl)pyridin-3-yl)-3,4-dihydroisoquinolin-1(2H)-one]
18 | 0.1 to 10 | > 1000 | Nc1nc(F)c(-c2ccc(N3CCC(F)CC3)cc2)cc1-c1ccc2c(c1)CCNC2=O [I-163, 6-(2-amino-6-fluoro-5-(4-(4-fluoropiperidin-1-yl)phenyl)pyridin-3-yl)-3,4-dihydroisoquinolin-1(2H)-one]
19 | 0.1 to 10 | > 1000 | CC(C)N1CCC(C)(c2ccc(-c3cc(-c4ccc5c(c4)CCNC5=O)c(N)nc3F)cc2)C1 (stereo not drawn) [I-164, 6-(2-amino-6-fluoro-5-(4-(1-isopropyl-3-methylpyrrolidin-3-yl)phenyl)pyridin-3-yl)-3,4-dihydroisoquinolin-1(2H)-one]
20 | 0.1 to 10 | > 1000 | COCCN1C[C@@H]2C[C@]2(c2ccc(-c3cc(-c4ccc5c(c4)CCNC5=O)c(N)nc3F)cc2)C1 [I-165, 6-(2-amino-6-fluoro-5-(4-((1S,5R)-3-(2-methoxyethyl)-3-azabicyclo[3.1.0]hexan-1-yl)phenyl)pyridin-3-yl)-3,4-dihydroisoquinolin-1(2H)-one]
21 | 11 to 100 | > 1000 | COCCN1CCC(c2ccc(-c3cc(-c4ccc5c(c4)CCNC5=O)c(N)nc3Cl)cc2)CC1 [I-166, 6-(2-amino-6-chloro-5-(4-(1-(2-methoxyethyl)piperidin-4-yl)phenyl)pyridin-3-yl)-3,4-dihydroisoquinolin-1(2H)-one]
22 | 11 to 100 | > 1000 | CC(C)N1CCN(c2ccc(-c3cc(-c4ccc5c(c4)CCNC5=O)c(N)nc3Cl)cc2)CC1 [I-169, 6-(2-amino-6-chloro-5-(4-(4-isopropylpiperazin-1-yl)phenyl)pyridin-3-yl)-3,4-dihydroisoquinolin-1(2H)-one]
23 | 0.1 to 10 | > 1000 | CC(C)N1CCN(c2ccc(-c3cc(-c4cc5c(cc4F)C(=O)NCC5)c(N)nc3F)nc2)CC1 [I-170, 6-(6′-amino-2′-fluoro-5-(4-isopropylpiperazin-1-yl)-[2,3′-bipyridin]-5′-yl)-7-fluoro-3,4-dihydroisoquinolin-1(2H)-one]
24 | 0.1 to 10 | > 1000 | CC(C)N1CC2C(F)(F)C2(c2ccc(-c3cc(-c4ccc5c(c4)CCNC5=O)c(N)nc3F)cc2)C1 (stereo not drawn) [I-171, 6-(2-amino-5-(4-(6,6-difluoro-3-isopropyl-3-azabicyclo[3.1.0]hexan-1-yl)phenyl)-6-fluoropyridin-3-yl)-3,4-dihydroisoquinolin-1(2H)-one]
25 | 0.1 to 10 | > 1000 | Nc1nc(F)c(-c2ccc(N3CCNCC3)cc2)cc1-c1cc2c(cc1F)C(=O)NCC2 [I-172, 6-(2-amino-6-fluoro-5-(4-(piperazin-1-yl)phenyl)pyridin-3-yl)-7-fluoro-3,4-dihydroisoquinolin-1(2H)-one 2,2,2-trifluoroacetate]

Row | SMILES | IC50 [1] [nM] | IC50 (Lck (h)) [nM]
26 | COCCN1CCC(O)(c2ccc(-c3cc(-c4ccc5c(c4)CCNC5=O)c(N)nc3F)cc2)CC1 [I-167, 6-(2-amino-6-fluoro-5-(4-(4-hydroxy-1-(2-methoxyethyl)piperidin-4-yl)phenyl)pyridin-3-yl)-3,4-dihydroisoquinolin-1(2H)-one] | 0.1 to 10 | > 1000
27 | Nc1nc(Cl)c(-c2ccc(N3CCN(CC(F)F)CC3)cc2)cc1-c1ccc2c(c1)CCNC2=O [I-168, 6-(2-amino-6-chloro-5-(4-(4-(2,2-difluoroethyl)piperazin-1-yl)phenyl)pyridin-3-yl)-3,4-dihydroisoquinolin-1(2H)-one] | 11 to 100 | > 1000
